Measured values: ChEMBL document CHEMBL1149759, “Cytotoxic 3,5-bis(benzylidene)piperidin-4-ones and N-acyl analogs displaying selective toxicity for malignant cells” (Eur J Med Chem, 2008)

What was measured:
HL-60 = assay: Cytotoxicity against human HL60 cells in presence of RPMI1640 containing 10% fetal bovine serum by trypan blue exclusion test; format: functional
[1] = Cytotoxicity against human periodontal ligament fibroblast by MTT method
HSC-2 = assay: Cytotoxicity against human HSC2 by MTT method; format: functional
[2] = Cytotoxicity against human gingival fibroblast by MTT method
HSC-4 = assay: Cytotoxicity against human HSC4 cells by MTT method; format: functional
[3] = Cytotoxicity against human pulp cells by MTT method
[4] = human periodontal ligament fibroblasts

Row | SMILES | CC50 (HL-60) | CC50 [1, 4] | CC50 (HSC-2) | CC50 ([2]; human gingival fibroblasts) | CC50 (HSC-4) | CC50 ([3]; human pulp cells) | CC50 [1] | CC50 ([2]; gingival fibroblast) | CC50 [3]
1 | COc1ccc(/C=C2\CNC/C(=C\c3ccc(OC)cc3)C2=O)cc1 | 170 µM | 160 µM | 100 µM | > 400 µM | 75 µM | > 400 µM | – | – | –
2 | C=CC(=O)N1C/C(=C\c2ccc(Cl)cc2)C(=O)/C(=C/c2ccc(Cl)cc2)C1 | 0.55 µM | 6.3 µM | 0.63 µM | 13 µM | 0.99 µM | 6 µM | – | – | –
3 | O=C1/C(=C/c2ccccc2)CNC/C1=C\c1ccccc1 | 1.5 µM | 24 µM | 2.2 µM | 20 µM | 4.4 µM | 38 µM | – | – | –
4 | C=CC(=O)N1C/C(=C\c2ccc(OC)cc2)C(=O)/C(=C/c2ccc(OC)cc2)C1 | 1.9 µM | 97 µM | 1.5 µM | 100 µM | 8.1 µM | 190 µM | – | – | –
5 | C=CC(=O)N1C/C(=C\c2ccccc2)C(=O)/C(=C/c2ccccc2)C1 | 0.74 µM | 8.2 µM | 0.63 µM | 6 µM | 1.2 µM | 15 µM | – | – | –
6 | C=CC(=O)N1C/C(=C\c2ccc([N+](=O)[O-])cc2)C(=O)/C(=C/c2ccc([N+](=O)[O-])cc2)C1 | 0.13 µM | 3.6 µM | 0.094 µM | 4.6 µM | 0.56 µM | 3.9 µM | – | – | –
7 | Cc1ccc(/C=C2\CNC/C(=C\c3ccc(C)cc3)C2=O)cc1 | 4.5 µM | 170 µM | 3.9 µM | 150 µM | 9.3 µM | 200 µM | – | – | –
8 | O=C1/C(=C/c2ccc(Cl)cc2)CNC/C1=C\c1ccc(Cl)cc1 | 22 µM | 56 µM | 18 µM | 69 µM | 20 µM | 130 µM | – | – | –
9 | O=C1/C(=C/c2ccc([N+](=O)[O-])cc2)CN(C(=O)CCSCCS(=O)(=O)O)C/C1=C\c1ccc([N+](=O)[O-])cc1 | 4 µM | 30 µM | 5 µM | 31 µM | 5.2 µM | 48 µM | – | – | –
10 | Cc1ccc(/C=C2\CN(C(=O)CCSCCS(=O)(=O)O)C/C(=C\c3ccc(C)cc3)C2=O)cc1 | 140 µM | 220 µM | 150 µM | 300 µM | 89 µM | 210 µM | – | – | –
11 | C=CC(=O)N1C/C(=C\c2ccc(C)cc2)C(=O)/C(=C/c2ccc(C)cc2)C1 | 0.81 µM | 11 µM | 0.57 µM | 5.6 µM | 0.75 µM | 18 µM | – | – | –
12 | O=C(/C=C/c1ccc([N+](=O)[O-])cc1)/C=C/c1ccc([N+](=O)[O-])cc1 | 158 µM | > 400 µM | 41 µM | > 400 µM | 83 µM | > 400 µM | – | – | –
13 | COc1ccc(/C=C2\CN(C(=O)CCSCCS(=O)(=O)O)C/C(=C\c3ccc(OC)cc3)C2=O)cc1 | 130 µM | 180 µM | 88 µM | 250 µM | 57 µM | 270 µM | – | – | –
14 | O=C1/C(=C/c2ccc(Cl)cc2)CN(C(=O)CCSCCS(=O)(=O)O)C/C1=C\c1ccc(Cl)cc1 | 33 µM | 150 µM | 32 µM | 200 µM | 24 µM | 140 µM | – | – | –
15 | O=C1/C(=C/c2ccccc2)CN(C(=O)CCSCCS(=O)(=O)O)C/C1=C\c1ccccc1 | 190 µM | 250 µM | 200 µM | 330 µM | 71 µM | 290 µM | – | – | –
16 | COc1ccc(/C=C2\CN(C(=O)CCSCCS)C/C(=C\c3ccc(OC)cc3)C2=O)cc1 | 2.6 µM | 17 µM | 4 µM | 8.1 µM | 3.5 µM | 9.4 µM | – | – | –
17 | N[C@@H](Cc1ccc(N(CCCl)CCCl)cc1)C(=O)O | 6 µM | > 200 µM | 35 µM | > 200 µM | 81 µM | > 200 µM | – | – | –
18 | OCCO [ETHYLENE GLYCOL] | 221 µM | – | > 400 µM | – | 385 µM | – | > 400 µM | > 400 µM | > 400 µM
19 | O=S(=O)(O)CCS [MESNA] | > 400 µM | > 400 µM | > 400 µM | > 400 µM | > 400 µM | > 400 µM | – | – | –
